One compound from US20250032580A1, “USE OF ADNF POLYPEPTIDES IN THERAPY” (RAMOT AT TEL-AVIV UNIVERSITY LTD., priority 2021, published 2025) can be followed below.

Test [1] has as its system Tyr mice. Description: CatWalk gait analysis. It is filed as in vivo, mouse. Details: key to NAP efficacy: motor impediments: corrections by NAP treatment (+). How it is done:
Animals—Animals were housed under a 12-hour light/dark cycle, with food and water ad-libitum. Mouse pups were subcutaneously administrated with NAP [having an amino acid sequence NAPVSIPQ (SEQ ID NO: 2), 25 μg NAP/1 ml saline] as described (8, 12). At 21 days of age mice were administered daily intranasal NAP in vehicle solution (“DD”—7.5 mg/ml of NaCl, 1.7 mg/ml of citric acid, 3 mg/ml of disodium phosphate dihydrate, and 0.2 mg/ml of 50% benzalkonium chloride solution) (0.5 μg NAP/5p1 DD) (8, 9, 12, and U.S. Pat. No. 10,912,819 to Gozes). These mice continued to behavioral analysis as described hereinbelow. The noninvasive intranasal route was chosen as these experiments required daily handling and administration. Age (weeks) of mice during behavioral experiments (mean±SEM) was as follows: Catwalk-9.23±0.15, grooming-10±0.15, social approach-10.5±0.12, odor-discrimination-12.12±0.13, hanging-wire-13±0.14, hotplate-13.18±0.13. Group size was determined following previous experiments (12). Pups were randomly allocated to either the NAP or DD group according to sex and genotype. All procedures involving animals were conducted under the supervision and approval of the institutional animal care and use committee of Tel Aviv University and the Israeli Ministry of Health.
Catwalk—Was performed as previously described (12).
CatWalk: Briefly, The CatWalk XT (Noldus Inc. Leesburg, VA) was used to analyze the gait of unforced, moving mice^10 Mice had to cross the runway of the CatWalk XT apparatus in a consistent manner, and a successful run was defined when an animal ran the track without any interruption or hesitation. Every mouse was tested until 3 successful runs were achieved.
Base of support is the average width between either the front paws or the hind paws. Swing (sec) or swing phase is the duration in seconds of no contact of a paw with the glass plate. Swing Speed is the speed (Distance Unit/second) of the paw during Swing. Max Contact Max Intensity is the maximum Intensity at Max Contact of a paw. Intensity ranges from 0 to 255 in arbitrary units. The intensity of a print depends on the degree of contact between a paw and the glass plate and increases with increasing weight. Therefore, Intensity is a measure of weight put on the glass plate.
The Intensity parameter is used to assess the effects of neuropathic pain, including mechanical allodynia. Max Contact Mean Intensity is the mean Intensity of a paw at Max Contact. Print length is the length (horizontal direction) of the complete print. The complete print is the sum of all contacts with the glass plate, as if the animal's paw would have been inked. Print width is the width (vertical direction) of the complete paw. Print area is the surface area of the complete print. Max Intensity is the maximum Intensity of the complete paw. Mean intensity is the mean Intensity of the complete paw.

For test [2], the system named is Tyr mice. Description: Ultrasonic vocalizations (USV) and syntax, DeepSqueak. It is filed as in vivo, mouse. Details: key to NAP efficacy: speech impediments: corrections by NAP treatment (+). How it is done: USV: On P8, each pup was separated from the dam and placed in an empty cage for 6 minutes, in a quiet room and was recorded using the M500-384 USB Ultrasound Microphone (Petterson, Sweden). Pups were distinguished from one another using the tattoos listed above. After 6 minutes pups were reunited with its dam. Data were analyzed using DeepSqueak. Data were loaded onto DeepSqueak, frequencies between 40-70 kHz were analyzed using the mouse call network V2. Calls were denoised using post hoc denoising network. For syntax analysis, Syntax was classified using Wright K means network. Syntax transition probability charts were generated using DeepSqueak and Matlab. Further USV experiments were performed on P8 pups as previously described (12) with slight modifications.

Test [3] deals with differentiated N1E-115 cells. Description: FRAP of mCherry-Tau (Tau-MT interaction). The class given is cell-based, mouse. The protocol:
Cell culture—Mouse neuroblastoma NIE-115 cells were maintained in Dulbecco's modified Eagle's medium, 10% fetal bovine serum, 2 mM glutamine and 100 U ml—1 penicillin, […] ml—1 streptomycin (Biological Industries, Beit Haemek, Israel). The cells were incubated in 95% air/5% CO2 in a humidified incubator at 37° C.
Cell differentiation and co-transfection of overexpression plasmids—Cultured NIE-115 cells were plated on 35 mm dishes (81156, 60μ-Dish, Ibidi, Martinsried, Germany) at a concentration of 1.25×10^4 cells per dish and then were differentiated with reduced fetal bovine serum (2%) and DMSO (1.25%) containing medium for 5 days before transfection. 48 hrs before experiments N1E-115 cells were co-transfected with 1 μg EB3-RFP or mCherry-Tau (3R) plasmid with or without 2 μg of plasmids, coding to GFP conjugated to full-length human ADNP, or ADNP carried mutations. 1:3 ratios between total amount of transfected DNA and transfection reagent were used according to manufacture guidance (Lipofectamine2000, Thermo Fisher Scientific, Waltham, MA, USA) in all subsequent experiments.
Fluorescence recovery after photobleaching (FRAP)—Differentiated NIE-115 cells were transfected with mCherry-Tau with or without GFP-conjugated to full-length ADNP or mutated ADNP, and imaged 48 hrs after transfection. An ROI for photobleaching was drowned in the proximal cell branches. mCherry-Tau was bleached with a […], and fluorescence recovery was collected within wavelengths of 610-650 nm. 80 images were taken every 0.74 sec immediately after bleaching. After FRAP imaging all samples were also treated with NAP in final concentrations of 10^−12 M, and after 4 hrs time-lapse imaging was done again under the same conditions. FRAP imaging for assessment difference between NAP and SKIP (SEQ ID NO: 21) activity was performed after an hour of ZnCl2 treatment (400 μM final concentration; Sigma, Rehovot, Israel) with or without NAP/SKIP (10^−12 M final concentration). Fluorescence signals were quantified with Fiji, obtained data were normalized with easyFRAP [82, 83] and FRAP recovery curves were fitted by a one-phase exponential association function by GraphPad Prism6 (GraphPad Software, Inc., La Jolla, CA, USA) while samples with R^2<0.9 were excluded.
Next, the effect of full-length/truncated ADNP forms with or without NAP treatment on Tau-MT interaction was examined by fluorescence recovery after photobleaching (FRAP) (FIGS. 8A-C). FRAP was performed with mCherry-tagged Tau protein (FIG. 8A). […] Therefore, the immobile mCherry-Tau fraction reflects the rate of Tau association with MTs.

“Also recorded” adds a separate entry of the source.

For `CC[C@H](C)[C@H](NC(=O)[C@H](CO)NC(=O)[C@@H](NC(=O)[C@@H]1CCCN1C(=O)[C@H](C)NC(=O)[C@@H](N)CC(N)=O)C(C)C)C(=O)N1CCC[C@H]1C(=O)N[C@@H](CCC(N)=O)C(=O)O` [NAP, NAPVSIPQ], the “Front base of support” value in test [1] (Tyr mice, males and females) is given as “NAP correcting this phenotype in males”. The “NAP efficacy: motor impediments” value in test [1] (Tyr mouse (gait), first symbol of cell) is reported as “+/(gait)+”. Moreover, in test [1] (WT mice, data not shown), the Gait parameters result is on record as “No major NAP effect”. For the same compound, in test [1] (female Tyr mice), the “Intensity parameters (gait)” value is given as “significant NAP correction”; the “Swing speed and swing duration” value is reported as “ameliorated by NAP”. For the same compound, the Print width result in test [1] (female Tyr mice, FIG. 1F) is recorded as “significant NAP correction effect”. Besides, in test [1] (male Tyr mice, daily intranasal NAP), the “Print length and area” value is recorded as “significant NAP recovery”. For the same compound, the “Number of syllables vocalized” value in test [2] (NAP-treated Tyr males, 8 for WT and Tyr) is 10. Also, the Syntax complexity entry in test [2] (P8 Tyr pups, both sexes) is “powerful corrective effect on both sexes; also recorded: significant improvement with NAP treatment”. Also, the “Total USVs produced” value in test [2] (P8 Tyr pups, females and males) is on record as “no NAP effects”. Moreover, in test [2] (Tyr mouse (syntax), first symbol of cell), the “NAP efficacy: speech impediments” value was “+/+ (syntax)”. Further, the Syntax result in test [2] (WT pups, data not shown) was “minor varied impact”. The “Tau-MT interaction (immobile mCherry-Tau fraction)” value in test [3] (cells expressing ADNP p.Glu830synfs*83, 10^−12 M, 4 hrs) was “significantly increased”. Moreover, the “Tau-MT interaction (Tau immobile fraction)” value in test [3] (cells expressing ADNP p.Lys408Valfs*31 SDM, 10^−12 M, 4 hrs) is on record as “prevented by NAP treatment”. In addition, in test [3] (cells expressing ADNP p.Ser404*, 10^−12 M, 4 hrs), the “Tau-MT interaction (immobile mCherry-Tau fraction)” value is on record as “significantly increased”. Further, the “Tau immobile fraction under zinc” value in test [3] (zinc 400 μM, 1 h, together with peptide 10^−12 M) is “excessive impact”.
